Data published in ChEMBL document CHEMBL1201862, “PubChem BioAssay data set” (2004).
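Method: 48-hour compound exposure of cells in 96-well plates, five concentrations, linear interpolation of endpoints. GI50: concentration for 50% inhibition of growth.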 Activity calls are given as the source filed them. Cut-off read from the data, not from the text of the source: active = GI50 up to about 1.1 µM and inactive = higher.

Experiments:
Test in all cases: NCI anticancer screen, dose series, 48 h
KM-20L2 = system: KM-20L2
TK-10 = system: TK-10
DMS-114 = system: DMS-114
M19-MEL = system: M19-MEL
CCRF-CEM = system: CCRF-CEM
Malme-3M = system: Malme-3M
EKVX = system: EKVX
HCT-15 = system: HCT-15
LXFL 529 = system: LXFL 529
OVCAR-4 = system: OVCAR-4
NCI-H23 = system: NCI-H23
RXF 393 = system: RXF 393
DLD-1 = system: DLD-1
K562 = system: K562
SF-295 = system: SF-295
SK-MEL-2 = system: SK-MEL-2
SF-268 = system: SF-268
SK-MEL-28 = system: SK-MEL-28
UACC-62 = system: UACC-62
M14 = system: M14
OVCAR-5 = system: OVCAR-5
786-0 = system: 786-0
KM12 = system: KM12
IGROV-1 = system: IGROV-1
SNB-75 = system: SNB-75
SNB-78 = system: SNB-78
NCI-H522 = system: NCI-H522
SNB-19 = system: SNB-19
NCI-H460 = system: NCI-H460
HOP-62 = system: HOP-62
COLO 205 = system: COLO 205
RXF 631 = system: RXF 631
OVCAR-8 = system: OVCAR-8
CAKI-1 = system: CAKI-1
HT-29 = system: HT-29
MOLT-4 = system: MOLT-4
RPMI-8226 = system: RPMI-8226
LOX IMVI = system: LOX IMVI
ACHN = system: ACHN
A549 = system: A549
OVCAR-3 = system: OVCAR-3
HL-60 = system: HL-60
DMS-273 = system: DMS-273
SN12C = system: SN12C
SK-MEL-5 = system: SK-MEL-5
SW-620 = system: SW-620
HOP-92 = system: HOP-92
UACC-257 = system: UACC-257
SK-OV-3 = system: SK-OV-3
UO-31 = system: UO-31
HCC 2998 = system: HCC 2998
MCF7 = system: MCF7
HOP-18 = system: HOP-18
NCI-H226 = system: NCI-H226
MDA-MB-435 = system: MDA-MB-435
HCT-116 = system: HCT-116
Hs-578T = system: Hs-578T
XF498 = system: XF498
BT-549 = system: BT-549
SR = system: SR
A498 = system: A498
T47D = system: T47D
SF-539 = system: SF-539
DU-145 = system: DU-145
U-251 = system: U-251

## CCOC(=O)C(=O)CC(=O)C(Br)C(Br)c1ccc(Cl)cc1 (centres undefined)
KM-20L2
  GI50: > 100 µM (inactive)
TK-10
  GI50: 52.2 µM (inactive)
DMS-114
  GI50: 43 µM (inactive)
M19-MEL
  GI50: 23.2 µM (inactive)
CCRF-CEM
  GI50: 8.36 µM (inactive)
Malme-3M
  GI50: 31.8 µM (inactive)
EKVX
  GI50: > 100 µM (inactive)
HCT-15
  GI50: 33.5 µM
LXFL 529
  GI50: 16.3 µM (inactive)
OVCAR-4
  GI50: 65.9 µM (inactive)
NCI-H23
  GI50: 30.5 µM (inactive)
RXF 393
  GI50: 30.4 µM (inactive)
DLD-1
  GI50: 18.3 µM (inactive)
K562
  GI50: 17.6 µM (inactive)
SF-295
  GI50: > 100 µM (inactive)
SK-MEL-2
  GI50: > 100 µM (inactive)
SF-268
  GI50: 34.1 µM (inactive)
SK-MEL-28
  GI50: 29.7 µM (inactive)
UACC-62
  GI50: 46 µM (inactive)
M14
  GI50: 21.8 µM (inactive)
OVCAR-5
  GI50: > 100 µM (inactive)
786-0
  GI50: 17.5 µM (inactive)
KM12
  GI50: 57.9 µM (inactive)
IGROV-1
  GI50: 42.5 µM (inactive)
SNB-75
  GI50: > 100 µM (inactive)
SNB-78
  GI50: 44.2 µM (inactive)
NCI-H522
  GI50: 23.6 µM (inactive)
SNB-19
  GI50: 26.4 µM (inactive)
NCI-H460
  GI50: > 100 µM (inactive)
HOP-62
  GI50: > 100 µM (inactive)
COLO 205
  GI50: 23.3 µM (inactive)
RXF 631
  GI50: > 100 µM (inactive)
OVCAR-8
  GI50: 34.9 µM (inactive)
CAKI-1
  GI50: 40.7 µM (inactive)
HT-29
  GI50: 18.6 µM (inactive)
MOLT-4
  GI50: 21.7 µM (inactive)
RPMI-8226
  GI50: 22.3 µM (inactive)
LOX IMVI
  GI50: 29.2 µM (inactive)
ACHN
  GI50: 36 µM (inactive)
A549
  GI50: > 100 µM (inactive)
OVCAR-3
  GI50: 23.3 µM (inactive)
HL-60
  GI50: 17.2 µM (inactive)
DMS-273
  GI50: 70.5 µM (inactive)
SN12C
  GI50: 30.3 µM (inactive)
SK-MEL-5
  GI50: 57.4 µM (inactive)
SW-620
  GI50: 39.6 µM (inactive)
HOP-92
  GI50: 24.6 µM (inactive)
UACC-257
  GI50: 29.5 µM (inactive)
SK-OV-3
  GI50: > 100 µM (inactive)
UO-31
  GI50: > 100 µM (inactive)
HCC 2998
  GI50: > 100 µM (inactive)

## O=C(O)COc1ccc(C(=O)/C(SS/C(C(=O)c2ccc(OCC(=O)O)c(Cl)c2Cl)=C2\C=C(c3ccc(F)cc3)SS2)=C2/C=C(c3ccc(F)cc3)SS2)c(Cl)c1Cl
KM-20L2
  GI50: 30 µM (inactive)
MCF7
  GI50: 36.8 µM (inactive)
TK-10
  GI50: 37.8 µM (inactive)
HOP-18
  GI50: 14.7 µM (inactive)
DMS-114
  GI50: 3.28 µM (inactive)
M19-MEL
  GI50: 13.2 µM (inactive)
CCRF-CEM
  GI50: 4.95 µM (inactive)
NCI-H226
  GI50: 15.1 µM (inactive)
Malme-3M
  GI50: 40.8 µM (inactive)
EKVX
  GI50: 38.6 µM (inactive)
HCT-15
  GI50: 9.71 µM
MDA-MB-435
  GI50: 49.4 µM (inactive)
LXFL 529
  GI50: 3.29 µM (inactive)
OVCAR-4
  GI50: 13.4 µM (inactive)
NCI-H23
  GI50: 13.2 µM (inactive)
DLD-1
  GI50: 11.2 µM (inactive)
K562
  GI50: 4.22 µM (inactive)
SF-295
  GI50: 20.8 µM (inactive)
SK-MEL-2
  GI50: 15.6 µM (inactive)
SF-268
  GI50: 6.9 µM (inactive)
HCT-116
  GI50: 9.29 µM (inactive)
SK-MEL-28
  GI50: 19.2 µM (inactive)
UACC-62
  GI50: 8.24 µM (inactive)
Hs-578T
  GI50: 3.83 µM (inactive)
M14
  GI50: 23.6 µM (inactive)
OVCAR-5
  GI50: 32.8 µM (inactive)
786-0
  GI50: 27.9 µM (inactive)
KM12
  GI50: 15.1 µM (inactive)
XF498
  GI50: 5.22 µM (inactive)
BT-549
  GI50: 27.7 µM (inactive)
IGROV-1
  GI50: 10.8 µM (inactive)
SNB-75
  GI50: 17.2 µM (inactive)
SR
  GI50: 3.76 µM (inactive)
SNB-78
  GI50: 6.08 µM (inactive)
A498
  GI50: 31.7 µM (inactive)
NCI-H522
  GI50: 2.38 µM (inactive)
SNB-19
  GI50: 15 µM (inactive)
T47D
  GI50: 3.13 µM (inactive)
NCI-H460
  GI50: 21.7 µM (inactive)
HOP-62
  GI50: 33.9 µM (inactive)
COLO 205
  GI50: 6.76 µM (inactive)
OVCAR-8
  GI50: 14 µM (inactive)
CAKI-1
  GI50: 33.5 µM (inactive)
HT-29
  GI50: 26.9 µM (inactive)
MOLT-4
  GI50: 8.67 µM (inactive)
RPMI-8226
  GI50: 10.1 µM (inactive)
LOX IMVI
  GI50: 3.12 µM (inactive)
SF-539
  GI50: 9.02 µM (inactive)
ACHN
  GI50: 18.6 µM (inactive)
A549
  GI50: 40.4 µM (inactive)
OVCAR-3
  GI50: 9.46 µM (inactive)
HL-60
  GI50: 2.37 µM (inactive)
DMS-273
  GI50: 13.6 µM (inactive)
SN12C
  GI50: 14.7 µM (inactive)
SK-MEL-5
  GI50: 17.5 µM (inactive)
DU-145
  GI50: 26.6 µM (inactive)
SW-620
  GI50: 15.6 µM (inactive)
U-251
  GI50: 5.75 µM (inactive)
HOP-92
  GI50: 3.75 µM (inactive)
UACC-257
  GI50: 27.5 µM (inactive)
SK-OV-3
  GI50: 41.7 µM (inactive)
UO-31
  GI50: 15.7 µM (inactive)
HCC 2998
  GI50: 25.6 µM (inactive)
